Values of other authors in publication PMC3378994 (Bioorganic & medicinal chemistry letters, 2012).

Molecular target: DAT (Rattus norvegicus, UniProt P23977)
Sequence (P23977 whole entry): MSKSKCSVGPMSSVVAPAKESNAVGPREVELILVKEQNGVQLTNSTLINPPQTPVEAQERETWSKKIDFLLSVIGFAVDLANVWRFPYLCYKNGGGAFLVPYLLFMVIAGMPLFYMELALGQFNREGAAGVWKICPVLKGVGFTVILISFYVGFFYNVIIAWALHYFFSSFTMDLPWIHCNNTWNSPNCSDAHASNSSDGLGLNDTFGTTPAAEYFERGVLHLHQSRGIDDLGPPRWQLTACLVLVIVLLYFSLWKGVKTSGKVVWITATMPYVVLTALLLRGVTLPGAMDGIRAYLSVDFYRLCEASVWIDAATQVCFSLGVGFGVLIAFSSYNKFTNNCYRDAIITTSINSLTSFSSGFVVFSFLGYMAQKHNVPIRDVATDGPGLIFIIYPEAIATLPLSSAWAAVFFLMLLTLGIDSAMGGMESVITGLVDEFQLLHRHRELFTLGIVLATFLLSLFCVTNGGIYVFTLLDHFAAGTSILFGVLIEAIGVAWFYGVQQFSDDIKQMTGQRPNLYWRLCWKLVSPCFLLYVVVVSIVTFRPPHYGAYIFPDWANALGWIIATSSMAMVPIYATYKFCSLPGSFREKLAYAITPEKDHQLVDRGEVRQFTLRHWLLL

In the case of Cc1ccc([C@H]2C[C@@H]3CC[C@H]([C@H]2C(=O)OCC[18F])N3C/C=C/I)cc1 [[^18F]FE-PE2I], the “Fold lower affinity to other monoamine transporters than to DAT” value is given as “more than 50 fold”.
